Four compounds from ChEMBL document CHEMBL3352151, “In vitro and in vivo antibacterial evaluation and mechanistic study of ornithine based small cationic lipopeptides against antibiotic resistant clinical isolates” (Eur J Med Chem, 2014) can be followed below.

The structures appear in SMILES notation. Converted amounts (≈) assume the structure as drawn. Square brackets hold non-standard residues; d marks the D form. Peptide text beside a SMILES is read from it. * marks the point of attachment. Stearoyl = CCCCCCCCCCCCCCCCCC(=O)*; Myristoyl = CCCCCCCCCCCCCC(=O)*; Orn = NCCC[CH](N)C(=O)O

Data set [1] deals with Staphylococcus epidermidis. Description: Antibacterial activity against clinical isolates of ampicillin-resistant Staphylococcus epidermidis GMCH/R-Amp008 after overnight incubation by microdilution broth assay. The class given is functional. (Broth dilution looks for growth in wells or tubes with falling amounts of substance.)
The subject of data set [2] is Pseudomonas aeruginosa. Put plainly: Antibacterial activity against clinical isolates of streptomycin-resistant Pseudomonas aeruginosa PGI/DML01991 after overnight incubation by microdilution broth assay. Type of data set: functional.
The test system of data set [3] is Enterococcus faecium. Put plainly: Antibacterial activity against clinical isolates of penicillin-resistant Enterococcus faecium GMCH/R-Pen003 after overnight incubation by microdilution broth assay. The class given is functional.
For data set [4], the system named is Staphylococcus aureus. Description: Antibacterial activity against clinical isolates of Staphylococcus aureus PGI/DML03054 after overnight incubation by microdilution broth assay. The class given is functional.
Data set [5] deals with Haemophilus influenzae. Description: Antibacterial activity against clinical isolates of ciprofloxacin-resistant Haemophilus influenzae PGI/DML01744 after overnight incubation by microdilution broth assay. Type of data set: functional.
Data set [6] in a line: Cytotoxicity against human HaCaT cells assessed as cell viability at 100 ug/ml after 18 hrs by MTT assay. Type of data set: cell-based. Conditions: read-out: Activity. In general terms: Formazan colour is commonly taken as a measure of viable cells.
Data set [7] deals with Enterococcus faecium. Description: Antibacterial activity against clinical isolates of Enterococcus faecium GMCH/B0102 after overnight incubation by microdilution broth assay. Type of data set: functional.
Data set [8] concerns Klebsiella pneumoniae. Description: Antibacterial activity against clinical isolates of kanamycin-resistant Klebsiella pneumoniae GMCH/R-Kan006 after overnight incubation by microdilution broth assay. The class given is functional.
Data set [9] relates to Streptococcus pneumoniae. Description: Antibacterial activity against clinical isolates of Streptococcus pneumoniae PGI/DML02468 after overnight incubation by microdilution broth assay. Type of data set: functional.
The test system of data set [10] is Enterococcus faecalis. Description: Antibacterial activity against clinical isolates of Enterococcus faecalis GMCH/B0091 after overnight incubation by microdilution broth assay. Type of data set: functional.
A short description of data set [11]: Cytotoxicity against human HaCaT cells assessed as cell viability at 500 ug/ml after 18 hrs by MTT assay. Type of data set: cell-based. Conditions: read-out: Activity.
Data set [12] relates to Enterococcus faecalis. Put plainly: Antibacterial activity against clinical isolates of gentamicin-resistant Enterococcus faecalis GMCH/R-Gen011 after overnight incubation by microdilution broth assay. The class given is functional.
Data set [13] concerns Staphylococcus aureus. Put plainly: Antibacterial activity against clinical isolates of methicillin-resistant Staphylococcus aureus PGI/DML03149 after overnight incubation by microdilution broth assay. Type of data set: functional.
Data set [14] has as its system Escherichia coli. Put plainly: Antibacterial activity against clinical isolates of imipenem-resistant Escherichia coli PGI/DML02292 after overnight incubation by microdilution broth assay. The class given is functional.
The test system of data set [15] is Staphylococcus epidermidis. Put plainly: Antibacterial activity against clinical isolates of Staphylococcus epidermidis GMCH/B0057 after overnight incubation by microdilution broth assay. Type of data set: functional.
Data set [16] concerns Klebsiella pneumoniae. Put plainly: Antibacterial activity against clinical isolates of Klebsiella pneumoniae GMCH/B0127 after overnight incubation by microdilution broth assay. The class given is functional.
The test system of data set [17] is Escherichia coli. Put plainly: Antibacterial activity against clinical isolates of Escherichia coli PGI/DML02250 after overnight incubation by microdilution broth assay. Type of data set: functional.
In data set [18] the test system is Acinetobacter baumannii. Description: Antibacterial activity against clinical isolates of Acinetobacter baumannii GMCH/B0083 after overnight incubation by microdilution broth assay. The class given is functional.
Data set [19] deals with Streptococcus pneumoniae. Description: Antibacterial activity against clinical isolates of erythromycin-resistant Streptococcus pneumoniae PGI/DML02213 after overnight incubation by microdilution broth assay. Type of data set: functional.
For data set [20], the system named is Acinetobacter baumannii. Description: Antibacterial activity against clinical isolates of imipenem-resistant Acinetobacter baumannii GMCH/R-Imi003 after overnight incubation by microdilution broth assay. Type of data set: functional.
Data set [21] deals with Haemophilus influenzae. Put plainly: Antibacterial activity against clinical isolates of Haemophilus influenzae PGI/DML01751 after overnight incubation by microdilution broth assay. Type of data set: functional.
The test system of data set [22] is Pseudomonas aeruginosa. Put plainly: Antibacterial activity against clinical isolates of Pseudomonas aeruginosa PGI/DML02084 after overnight incubation by microdilution broth assay. Type of data set: functional.

`CCCCCCCCCCCCCC(=O)NC(CCCN)C(=O)NC(CCCN)C(=O)NC(CCCN)C(=O)NC(CCCN)C(N)=O` (stereo unspecified) (Myristoyl-[Orn][Orn][Orn][Orn]-NH2; configuration not given here): the MIC in [1] is 4.25 µg/mL (≈ 6.21 µM); against Pseudomonas aeruginosa [2], 3 µg/mL (≈ 4.39 µM); with Enterococcus faecium [3], 5.5 µg/mL (≈ 8.04 µM); with Staphylococcus aureus [4], 4.5 µg/mL (≈ 6.58 µM); in the data set with Haemophilus influenzae [5] it was 10 µg/mL (≈ 14.6 µM); in the data set with Enterococcus faecium [7], 4 µg/mL (≈ 5.85 µM). The MIC against Klebsiella pneumoniae [8] worked out at 6.25 µg/mL (≈ 9.14 µM); against Streptococcus pneumoniae [9] it was 5.5 µg/mL (≈ 8.04 µM); with Enterococcus faecalis [10] it was 2 µg/mL (≈ 2.92 µM); in the data set with Enterococcus faecalis [12] it was 3.5 µg/mL (≈ 5.12 µM); with Staphylococcus aureus [13], 5 µg/mL (≈ 7.31 µM); in the data set with Escherichia coli [14], 10 µg/mL (≈ 14.6 µM). The MIC in data set [15] is 3.5 µg/mL (≈ 5.12 µM); with Klebsiella pneumoniae [16], 4.5 µg/mL (≈ 6.58 µM); against Escherichia coli [17], 2.5 µg/mL (≈ 3.66 µM); against Acinetobacter baumannii [18], 5 µg/mL (≈ 7.31 µM); with Streptococcus pneumoniae [19] it was 7.5 µg/mL (≈ 11 µM); with Acinetobacter baumannii [20], 5.5 µg/mL (≈ 8.04 µM). Further, the values for the MIC in the data set on Haemophilus influenzae [21] and against Pseudomonas aeruginosa [22] were 12.5 µg/mL (≈ 18.3 µM) and 3.1 µg/mL (≈ 4.53 µM), respectively. The viability at 18 h, 100 ug/ml in [6] was above 80%. In addition, in [11], the viability at 18 h, 500 ug/ml is above 80%.
For `CCCCCCCCCCCCCC(=O)NC(CCCN)C(=O)NC(CCCN)C(=O)NC(CCCN)C(=O)NC(CCCN)C(=O)NC(CCCN)C(N)=O` (stereo unspecified) (Myristoyl-[Orn][Orn][Orn][Orn][Orn]-NH2; configuration not given here), the MIC in [1] was 12.5 µg/mL (≈ 15.7 µM); in the data set with Pseudomonas aeruginosa [2] it was 4.25 µg/mL (≈ 5.32 µM); in the data set with Enterococcus faecium [3], 6.21 µg/mL (≈ 7.78 µM); against Staphylococcus aureus [4], 10 µg/mL (≈ 12.5 µM); against Haemophilus influenzae [5], 15.5 µg/mL (≈ 19.4 µM); in the data set with Enterococcus faecium [7], 3.1 µg/mL (≈ 3.88 µM). For the same compound, the MIC against Klebsiella pneumoniae [8] was 7.5 µg/mL (≈ 9.4 µM); against Streptococcus pneumoniae [9] it was 3.5 µg/mL (≈ 4.39 µM); in the data set on Enterococcus faecalis [10], 1.5 µg/mL (≈ 1.88 µM); in the data set with Enterococcus faecalis [12] it was 10.5 µg/mL (≈ 13.2 µM); against Staphylococcus aureus [13] it was 12.5 µg/mL (≈ 15.7 µM); against Escherichia coli [14], 6.25 µg/mL (≈ 7.83 µM). Besides, the MIC came to 7.5 µg/mL (≈ 9.4 µM) in [15]; 6.2 µg/mL (≈ 7.77 µM) with Klebsiella pneumoniae [16]; 2.5 µg/mL (≈ 3.13 µM) against Escherichia coli [17]; 8.25 µg/mL (≈ 10.3 µM) in the data set with Acinetobacter baumannii [18]; 12.5 µg/mL (≈ 15.7 µM) in the data set on Streptococcus pneumoniae [19]; 6.5 µg/mL (≈ 8.14 µM) with Acinetobacter baumannii [20]. Moreover, the MIC came out at 12.5 µg/mL (≈ 15.7 µM) with Haemophilus influenzae [21] and 1.5 µg/mL (≈ 1.88 µM) in the data set with Pseudomonas aeruginosa [22]. In addition, in [6], the viability at 18 h, 100 ug/ml is above 80%. In addition, the viability at 18 h, 500 ug/ml in data set [11] is above 80%.
For the compound `CCCCCCCCCCCCCCCCCC(=O)NC(CCCN)C(=O)NC(CCCN)C(=O)NC(CCCN)C(=O)NC(CCCN)C(=O)NC(CCCN)C(N)=O` (stereo unspecified) (Stearoyl-[Orn][Orn][Orn][Orn][Orn]-NH2; configuration not given here), the MIC in data set [1] amounted to 10.5 µg/mL (≈ 12.3 µM); in the data set on Pseudomonas aeruginosa [2], 5 µg/mL (≈ 5.85 µM); against Enterococcus faecium [3], 12.5 µg/mL (≈ 14.6 µM); in the data set on Staphylococcus aureus [4] it was 6.2 µg/mL (≈ 7.26 µM); with Haemophilus influenzae [5], 15 µg/mL (≈ 17.6 µM); with Enterococcus faecium [7], 6.2 µg/mL (≈ 7.26 µM). For the same compound, the MIC in the data set on Klebsiella pneumoniae [8] turned out to be 12.5 µg/mL (≈ 14.6 µM); against Streptococcus pneumoniae [9], 2.5 µg/mL (≈ 2.93 µM); with Enterococcus faecalis [10], 4.5 µg/mL (≈ 5.27 µM); in the data set with Enterococcus faecalis [12], 15 µg/mL (≈ 17.6 µM); against Staphylococcus aureus [13], 10.5 µg/mL (≈ 12.3 µM); with Escherichia coli [14], 7.5 µg/mL (≈ 8.78 µM). For the same compound, the MIC in data set [15] stood at 4.5 µg/mL (≈ 5.27 µM); with Klebsiella pneumoniae [16], 4 µg/mL (≈ 4.68 µM); in the data set on Escherichia coli [17], 5 µg/mL (≈ 5.85 µM); against Acinetobacter baumannii [18], 10 µg/mL (≈ 11.7 µM); against Streptococcus pneumoniae [19], 10 µg/mL (≈ 11.7 µM); in the data set on Acinetobacter baumannii [20], 7.5 µg/mL (≈ 8.78 µM). The MIC amounted to 10 µg/mL (≈ 11.7 µM) in the data set with Haemophilus influenzae [21] and 2.5 µg/mL (≈ 2.93 µM) in the data set with Pseudomonas aeruginosa [22]. In addition, the viability at 18 h, 100 ug/ml in data set [6] is above 80%. Besides, the viability at 18 h, 500 ug/ml in data set [11] is above 80%.
`CCCCCCCCCC(=O)N[C@@H](Cc1c[nH]c2ccccc12)C(=O)N[C@H](CC(N)=O)C(=O)N[C@@H](CC(=O)O)C(=O)N[C@@H]1C(=O)NCC(=O)N[C@@H](CCCN)C(=O)N[C@@H](CC(=O)O)C(=O)N[C@H](C)C(=O)N[C@@H](CC(=O)O)C(=O)NCC(=O)N[C@H](CO)C(=O)N[C@@H]([C@H](C)CC(=O)O)C(=O)N[C@@H](CC(=O)c2ccccc2N)C(=O)O[C@@H]1C`: the MIC amounted to 1.5 µg/mL (≈ 0.926 µM) in data set [1]; 2.5 µg/mL (≈ 1.54 µM) in the data set with Enterococcus faecium [3]; 0.7 µg/mL (≈ 0.432 µM) against Staphylococcus aureus [4]; 2 µg/mL (≈ 1.23 µM) in the data set with Enterococcus faecium [7]; 1.25 µg/mL (≈ 0.771 µM) in the data set with Streptococcus pneumoniae [9]; 1.75 µg/mL (≈ 1.08 µM) against Enterococcus faecalis [10]. For the same compound, the MIC against Enterococcus faecalis [12] came to 1.5 µg/mL (≈ 0.926 µM); with Staphylococcus aureus [13], 1.25 µg/mL (≈ 0.771 µM); in data set [15], 0.5 µg/mL (≈ 0.309 µM); with Streptococcus pneumoniae [19], 1.5 µg/mL (≈ 0.926 µM).
